The values that follow come from patent publication US5622944A, “Testosterone prodrugs for improved drug delivery” (Affymax Technologies N.V., priority 1995, dated 1997).

The structures appear in SMILES notation. Where a name gives a salt, the structure may show the parent alone. Some results are limits rather than exact numbers.

Data set [1] in a line: in vitro. The class given is cell-based, human. The following applies: human, dermal fibroblasts, MTT; for CC50 at 2 h: IC50 2 h (cytotoxicity), 2 h incubation; for CC50 at 16 h: IC50 16 h (cytotoxicity), 16 h incubation. As for the experimental part: As discussed above, the chemical modifier, when present in the subject in its free or released form, and in appropriately administered amounts, should preferably be non-toxic. Additionally, any further in vivo degradation products of the chemical modifier should be non-toxic, as well. Table 2 provides in vitro relative cytotoxicity data for a number of testosterone/chemical modifier complexes, prepared in accordance with the invention. The cytotoxicity assessment was carried out by examining the viability of human dermal fibroblasts in the presence of a number of testosterone/chemical modifier complexes in accordance with the present invention. Details of the experimental protocol are summarized in Example 27.
The viability of human dermal fibroblasts in the presence of the 17-hydroxy sterol/chemical modifier compounds was assayed using MTT (3-[4,5-dimethylthiazol-2-yl]-2,5-diphenyltetrazolium bromide) reduction to formazan by mitochondrial enzymes as an indicator of cytotoxicity (Swisher, et al.). Confluent fibroblast cells were incubated for 2 or 16 hours in the presence of increasing concentrations of drug complex. At the end of the incubation period, medium was replaced for 4 hours by medium containing the tetrazolium salt, MTT. Metabolism of MTT to a blue formazan was quantitated by spectrophotometry at 540 nm.

Data set [2] is described as follows: Degradation (%/d).
Data set [3] in a line: Water solubility (H2O sol). The following applies: for solubility: H2O sol.
Data set [4] is classed as in vitro ADME, mouse. Particulars: murine skin, active cells (ETm), 10 mM donor, 100 uA/cm^2, 6 h, 32° C. How it is done: In vitro electrotransport of testosterone/chemical modifier complexes across hairless mouse skin was evaluated as described in Example 28. The experiments were conducted using modified Valia-Chien cells having 1.0 ml donor and 2.5 ml receptor cells. Anodic transport was carried out using a silver wire-based salt bridge in the donor compartment and a silver chloride cathode in the receptor. Cathodic transport was effected by reversing the electrode configuration. The cells were connected in series and a constant current and temperature were supplied to each cell.
After a predetermined period of time (6 h), aliquots were removed from the receiver phase for immediate analysis by HPLC to determine cumulative flux.
The electrotransport of testosterone/chemical modifier complexes was achieved using modified Valia-Chien cells (1.0 ml donor and 2.5 ml receptor cells). Full thickness, hairless mouse skin (Charles River Labs, Wilmington, Mass.) was soaked for one hour in phosphate buffered saline (PBS, pH=7.4) before placing between each compartment (dermal side of skin facing toward receptor). One passive (P1:data) and two or more (ETm :data) active cells were used to screen each compound.
A 10 mM (1 ml) aqueous solution of testosterone drug/prodrug was placed in the donor (unstirred) compartment and the receptor (stirred) was filled with 2.5 ml of PBS. In order to check for egress due to e.g. damaged skin, a zero hour sample of receptor ([…]) was taken one half hour after the drug solution was placed in the donor compartment. Replacement fluid of equal sample volume was added to the receptor compartment immediately after samples were taken.
Anodic electrotransport was achieved using a silver wire (immersed in a polyvinylalcohol-based salt bridge to minimize junction potential) in the donor compartment and a AgCl cathode in the receptor. […] The electrotransport cells were connected in series and constant current (100 uA/cm^2, […] for a skin area of 0.64 cm^2) and temperature (32° C.) were supplied to each cell. After six hours of active/passive transport, aliquots (200 ul) of the receptor were sampled and immediately analyzed by HPLC.
A standard plot of peak area and concentration for each compound was constructed using HPLC. The peak areas of the samples were determined and the concentrations calculated using the standard data. Cumulative flux was calculated using Quickbasic and reported in nmol/cm^2 /hr.

Data set [5] can be described thus: in vitro. It counts as in vitro ADME. Particulars: 37° C.; for half-life: human, serum. As for the experimental part: The hydrolytic activity of the sterol prodrug may be evaluated by studies of the chemical or enzymatic conversion of the prodrug to the unmodified parent compound, as described in Example 26.
Generally, the sterol/chemical modifier complex is dissolved in a minimum amount of a suitable solvent, such as ethanol, and the resulting solution is added to a sample of human serum. Following incubation, aliquots are then removed at various time points and analyzed to determine the extent of hydrolysis. Table I herein lists the representative serum half-lives of a number of testosterone prodrugs according to the present invention.
The rates of conversion are readily determined, for example by spectrophotometric methods or by gas-liquid or high performance liquid chromatography. Half-lives and other kinetic parameters may then be calculated using standard techniques.
Determination of Testosterone Prodrug Hydrolysis in Serum
Stock solutions (6 mM) of the testosterone prodrugs were prepared in ethanol (dissolution was accomplished by vortexing, sonication, or warming at 37° C., as needed). If required for dissolution, one drop of a co-solvent such as dimethylsulfoxide, dimethylformamide or methanol was added. (Acetonitrile is undesirable because it deactivates the serum enzymes).
HPLC separation methods were established for each study by dilution of the above stock solutions (6 μl) in acetonitrile (1 ml) to form 36 μM solutions. Samples (10 μl) were injected onto a Nucleosil 5C8 column (250×4 mm ID) fitted with an additional guard column (11×4 mm ID) and eluted with a mobile phase of approximately 65% HPLC grade water and 35% trifluoroacetic acid in acetonitrile (0.1% TFA in acetonitrile). Exact proportions of the mobile phase eluents were adjusted in each case to give optimum separation and run times.
Freshly defrosted human serum (3 ml, Sigma) was warmed at 37° C. for five minutes and then the testosterone prodrug stock solution (60 μl) was added with vortexing. […] The aliquots were added to 800 μl of 2% zinc sulfate solution in a 1.5 ml disposable microcentrifuge tube, vortexed immediately and centrifuged at 14,000 RPM for 3 minutes. The supernatants (10 μl) were injected onto the HPLC and peak areas used to determine the percent of parent drug formed or percent of prodrug remaining. Serum blanks were prepared similarly by addition of serum to the zinc sulfate solution, followed by centrifugation. Initial (time=0) samples were prepared by adding serum to the zinc sulfate solution, followed by addition of the complex and separation by centrifugation. The time=0 samples, as well as the original stock solutions, were also used to assess the stability of the complex in the absence of enzyme. Half-lives were determined using the following equation : […]
and plotting time (x ordinate) versus the natural logarithm of percent remaining prodrug (y ordinate) to obtain the slope (m) and the y intercept (b).

In data set [1], `C[C@]12CC[C@H]3[C@@H](CCC4=CC(=O)CC[C@@]43C)[C@@H]1CC[C@@H]2O` [Code 1.0, 17β-hydroxyandrost-4-en-3-one, reference compound] yielded a CC50 at 2 h of over 1000 µM and a cytotoxic concentration (CC50) at 16 h of 423 µM. This compound yielded a Degradation in data set [2] of 0 %/d. In addition, in data set [3], the H2O sol is 0.0 mg/mL.
In data set [1], `CCCCCCCCCCCCCCCC(=O)O[C@H](CC(=O)O[C@H]1CC[C@H]2[C@@H]3CCC4=CC(=O)CC[C@]4(C)[C@H]3CC[C@]12C)C[N+](C)(C)C` [Code 1.1, testosterone-17β-(O-palmitoyl-L-carnitinate), chloride salt] gave a CC50 at 2 h of under 10 µM and a CC50 at 16 h of under 10 µM. Besides, in data set [4], the “Flux, active electrotransport (ET)” value was 0 nmol/cm^2 /hr. The Degradation in data set [2] came to 0 %/d. For the same compound, in data set [3], the solubility was 26 mg/mL.
Consider `CC(=O)OC(CC(=O)O[C@H]1CC[C@H]2[C@@H]3CCC4=CC(=O)CC[C@]4(C)[C@H]3CC[C@]12C)C[N+](C)(C)C` (stereo partly shown) [Code 1.2], for which the half-life in data set [5] (HPLC) was 96 h. In data set [1], this compound returned a CC50 at 2 h of 91.6 µM and a CC50 at 16 h of 34.4 µM. Moreover, the “Flux, active electrotransport (ET)” value in data set [4] is 7.3 ± 5.8 nmol/cm^2 /hr. This compound also showed a Degradation in data set [2] of 0 %/d. Besides, the solubility in data set [3] was found to be 22 mg/mL.
In data set [5] (HPLC), `C[C@]12CC[C@H]3[C@@H](CCC4=CC(=O)CC[C@@]43C)[C@@H]1CC[C@@H]2OC(=O)OCOC(=O)CNC(=O)OCOC(=O)CCCCC[N+](C)(C)C` [Code 1.8] displayed a half-life of 0.0667 h.
Still for that read-out and setting: the result for `COC(=O)[C@H](COC(=O)O[C@H]1CC[C@H]2[C@@H]3CCC4=CC(=O)CC[C@]4(C)[C@H]3CC[C@]12C)[N+](C)(C)C` [Code 1.9, testosterone-17β-(N,N,N-trimethyl-L-serine methyl ester) carbonate, tetrafluoroborate salt] reads about 0.00125 h.
On to `COC(=O)[C@H](COC(=O)O[C@H]1CC[C@H]2[C@@H]3CCC4=CC(=O)CC[C@]4(C)[C@H]3CC[C@]12C)[N+](C)(C)C` [Code 2.0, testosterone-17β-(N,N,N-trimethyl-L-serine methyl ester) carbonate, bromide salt], for which the Serum half-life in data set [5] (human serum, HPLC) came out at 5 s.
`C[C@]12CC[C@H]3[C@@H](CCC4=CC(=O)CC[C@@]43C)[C@@H]1CC[C@@H]2OC(=O)OCOC(=O)CC[N+](C)(C)C` [Code 2.1, testosterone-17β-(N,N,N-trimethyl-β-alaninyloxymethyl)carbonate,iodide salt] gave a half-life in data set [5] (HPLC) of 0.0106 h.
`C[C@]12CC[C@H]3[C@@H](CCC4=CC(=O)CC[C@@]43C)[C@@H]1CC[C@@H]2OC(=O)c1cccnc1` [Code 2.7, Testosterone-17β-nicotinate] showed a half-life in data set [5] (HPLC) of about 840 h. Besides, in data set [1], the half-maximal cytotoxic concentration (CC50) at 2 h is over 1000 µM and the CC50 at 16 h is over 1000 µM. Also, in data set [3], the H2O sol was 0.0 mg/mL.
For `CN(C)CCCC(=O)O[C@H]1CC[C@H]2[C@@H]3CCC4=CC(=O)CC[C@]4(C)[C@H]3CC[C@]12C` [Code 3.0], the half-life in data set [5] (footnote 2: prodrug remaining, ~50% testosterone and ~50% unknown formed) was 106 h.
In data set [1], `CN(C)CCCC(=O)O[C@H]1CC[C@H]2[C@@H]3CCC4=CC(=O)CC[C@]4(C)[C@H]3CC[C@]12C` [Code 3.1, testosterone-17β-[4-N,N-dimethylaminobutyrate], hydrochloride salt] registered a cytotoxic concentration (CC50) at 2 h of 255 µM and a CC50 at 16 h of 145 µM. For the same compound, in data set [4], the “Flux, active electrotransport (ET)” value is recorded as 0.7 ± 0.2 nmol/cm^2 /hr. Also, the Degradation in data set [2] is 0 %/d. Moreover, in data set [3], the solubility worked out at 22 mg/mL.
With `CN(C)CCc1ccc(OC(=O)O[C@H]2CC[C@H]3[C@@H]4CCC5=CC(=O)CC[C@]5(C)[C@H]4CC[C@]23C)cc1` [Code 3.3, testosterone-17β-hordenine carbonate], the half-life in data set [5] (HPLC) was 8.2 h.
Same read-out and setting: the result for `COC(=O)[C@H](COC(=O)O[C@H]1CC[C@H]2[C@@H]3CCC4=CC(=O)CC[C@]4(C)[C@H]3CC[C@]12C)N(C)C` [Code 3.5] reads 0.783 h; that for `C[C@]12CC[C@H]3[C@@H](CCC4=CC(=O)CC[C@@]43C)[C@@H]1CC[C@@H]2OC(=O)c1ccccn1` [Code 3.9, testosterone-17β-picolinate, hydrochloride salt], 12.2 h.
On to `C[n+]1ccccc1C(=O)O[C@H]1CC[C@H]2[C@@H]3CCC4=CC(=O)CC[C@]4(C)[C@H]3CC[C@]12C` [Code 4.0], for which the half-life in data set [5] (HSO4^- salt) was 1.08 h; in data set [5] (iodide (I--) salt), 1.17 h. In data set [1], this compound gave a CC50 at 2 h of 330 µM. This compound also yielded a CC50 at 16 h in data set [1] of 41.1 µM. The compound also gave a solubility in data set [3] of 0.9 mg/mL.
Compound `C[C@]12CC[C@H]3[C@@H](CCC4=CC(=O)CC[C@@]43C)[C@@H]1CC[C@@H]2OC(=O)CCC(=O)NCCS(=O)(=O)O` [Code 4.2, testosterone-17β-[taurinesuccinamide ester], triethvlammonium salt] showed a half-life in data set [5] (HPLC) of 24 h. In addition, the “Flux, active electrotransport (ET)” value in data set [4] worked out at 2.8 ± 3.7 nmol/cm^2 /hr.
Take `C[C@]12CC[C@H]3[C@@H](CC=C4C=C(OC(=O)CCC[N+](C)(C)C)CC[C@@]43C)[C@@H]1CC[C@@H]2OC(=O)CCC[N+](C)(C)C` [Code 4.3, testosterone-3-enol, 17β-ol bis[4-(N,N,N-trimethylammonio)butyrate], dibromide salt]: in data set [5] (footnote 3: prodrug remaining, 60% [2.3] formed, no other products seen), the half-life was 7.8 h. The “Flux, active electrotransport (ET)” value in data set [4] stood at 1.0 ± 0.6 nmol/cm^2 /hr.
Take `C[C@]12CC[C@H]3[C@@H](CC=C4C=C(OC(=O)CC[N+](C)(C)C)CC[C@@]43C)[C@@H]1CC[C@@H]2OC(=O)OCC[N+](C)(C)C` [Code 4.4, testosterone-3-enol, 17β-ol 3-(N,N,N-trimethyl-β-alanine ester) 17-(choline carbonate), dibromide salt]: the half-life in data set [5] (footnote 1: prodrug remaining, no testosterone formed) was found to be 0.0383 h. In data set [4], the “Flux, active electrotransport (ET)” value stood at 0.2 ± 0.0 nmol/cm^2 /hr.
